From patent publication US20170122958A1, “Enzymes Functional Probes” (University of Dundee, priority 2013, published 2017)
“Also recorded” adds a separate entry of the source. Where two headings read alike, the source gives them in different places.

How the values were obtained:
[1] = target: T1, Brd2(2)*(Trp370Phe) (Homo sapiens, UniProt P25440, W370F); experiment: ITC reverse titration of protein into compound; assay type: binding
T1 construct: Plasmids of the eight single BET bromodomain constructs Brd2(1), Brd2(2), Brd3(1), Brd3(2); His6 (N); made in house; host or cells: E. coli BL21(DE3)
T1 sequence (P25440 344-453 W370F limits assumed): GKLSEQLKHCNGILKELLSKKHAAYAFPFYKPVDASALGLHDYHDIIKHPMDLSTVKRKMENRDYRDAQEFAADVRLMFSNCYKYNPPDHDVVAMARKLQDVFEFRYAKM
Protocol: For this reason, these molecules were not selected for further experimentation. […] Results can be seen in FIG. 7.
(§1) ITC experiments were carried out on a ITC200 instrument from MicroCal™ Experiments were conducted at 3 different temperatures 15° C., 25° C. and 30° C., while stirring at 1000 rpm. Buffers of proteins, peptide and compounds were matched to 20 mM HEPES pH 7.5 at 25° C. and 100 mM NaCl. Frozen protein was buffer exchanged as described for the DSF experiments. Each titration comprised 1 initial injection of 0.4 μl lasting 0.8 s, followed by 19 injections of 2 μl lasting 4 s each at 2 min intervals. The initial injection was discarded during data analysis. Standard and reverse titrations were conducted depending on the binding partners.
Reverse titrations were conducted to test the binding of the known ligands and the novel chemical probes to the wild types and the mutants. Experiments were carried out either at 25° C. or 30° C. […]
(§2) All the data was fitted to a single binding site model using the Microcal LLC ITC200 Origin software provided by the manufacturer to yield enthalpies of binding (ΔH) and binding constants (Kas). Further thermodynamic parameters were calculated from these values (changes in entropy ΔS, changes in free energy AG and dissociation constants (Kds)).

[2] = target: T2, Brd2(2) (Homo sapiens, UniProt P25440); experiment: ITC reverse titration of protein into compound; assay type: binding; settings: ITC 25° C.
T2 construct: Plasmids of the eight single BET bromodomain constructs Brd2(1), Brd2(2), Brd3(1), Brd3(2); His6 (N); made in house; host or cells: E. coli BL21(DE3)
T2 sequence (P25440 344-453 limits assumed): as the sequence (P25440 344-453 W370F limits assumed) above, with F27W counted along it
Protocol: as §1
(§3) Reverse titrations were conducted to test the binding of the known ligands and the novel chemical probes to the wild types and the mutants. Experiments were carried out either at 25° C. or 30° C. […] In cases where the compound was solubilized in dimethyl sulfoxide, DMSO concentration was adjusted to 1% both in the syringe and in the cell.
as §2

[3] = target: T3, Brd2(1)*(Trp097Phe) (Homo sapiens, UniProt P25440, W97F); experiment: DSF thermal shift; assay type: binding; settings: mutant
T3 construct: Plasmids of the eight single BET bromodomain constructs Brd2(1), Brd2(2), Brd3(1), Brd3(2); His6 (N); made in house; host or cells: E. coli BL21(DE3)
T3 sequence (P25440 74-180 W97F limits assumed): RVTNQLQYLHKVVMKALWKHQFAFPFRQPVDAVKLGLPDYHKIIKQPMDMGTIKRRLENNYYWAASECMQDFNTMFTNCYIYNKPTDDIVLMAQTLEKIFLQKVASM

[4] = target: T2, Brd2(2); experiment: DSF thermal shift; assay type: binding; settings: wild type
[5] = target: T4, Brd2(2)*(Trp370His) (Homo sapiens, UniProt P25440, W370H); experiment: DSF thermal shift; assay type: binding; settings: mutant
T4 construct: Plasmids of the eight single BET bromodomain constructs Brd2(1), Brd2(2), Brd3(1), Brd3(2); His6 (N); made in house; host or cells: E. coli BL21(DE3)
T4 sequence (P25440 344-453 W370H limits assumed): as the sequence (P25440 344-453 W370F limits assumed) above, with F27H counted along it

[6] = target: T5, Brd2(1)*(Trp097His) (Homo sapiens, UniProt P25440, W97H); experiment: DSF thermal shift; assay type: binding; settings: mutant
T5 construct: Plasmids of the eight single BET bromodomain constructs Brd2(1), Brd2(2), Brd3(1), Brd3(2); His6 (N); made in house; host or cells: E. coli BL21(DE3)
T5 sequence (P25440 74-180 W97H limits assumed): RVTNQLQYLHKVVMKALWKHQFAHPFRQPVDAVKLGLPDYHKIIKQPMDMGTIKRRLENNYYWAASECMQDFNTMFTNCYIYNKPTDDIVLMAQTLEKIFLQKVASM

[7] = target: T1, Brd2(2)*(Trp370Phe); experiment: DSF thermal shift; assay type: binding; settings: mutant
[8] = target: T6, Brd2(1) (Homo sapiens, UniProt P25440); experiment: DSF thermal shift; assay type: binding; settings: wild type
T6 construct: Plasmids of the eight single BET bromodomain constructs Brd2(1), Brd2(2), Brd3(1), Brd3(2); His6 (N); made in house; host or cells: E. coli BL21(DE3)
T6 sequence (P25440 74-180 limits assumed): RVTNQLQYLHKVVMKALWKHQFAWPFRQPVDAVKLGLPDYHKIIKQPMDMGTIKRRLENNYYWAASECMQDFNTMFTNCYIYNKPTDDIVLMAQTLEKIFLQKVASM

[9] = target: T7, Brd2(2)*(Val376Ala) (Homo sapiens, UniProt P25440, V376A); experiment: DSF thermal shift; assay type: binding; settings: mutant
T7 construct: Plasmids of the eight single BET bromodomain constructs Brd2(1), Brd2(2), Brd3(1), Brd3(2); His6 (N); made in house; host or cells: E. coli BL21(DE3)
T7 sequence (P25440 344-453 V376A limits assumed): as the sequence (P25440 344-453 W370F limits assumed) above, with F27W, V33A counted along it

[10] = target: T8, Brd2(1)*(Val103-Ala) (Homo sapiens, UniProt P25440, V103A); experiment: DSF thermal shift; assay type: binding; settings: mutant
T8 construct: Plasmids of the eight single BET bromodomain constructs Brd2(1), Brd2(2), Brd3(1), Brd3(2); His6 (N); made in house; host or cells: E. coli BL21(DE3)
T8 sequence (P25440 74-180 V103A limits assumed): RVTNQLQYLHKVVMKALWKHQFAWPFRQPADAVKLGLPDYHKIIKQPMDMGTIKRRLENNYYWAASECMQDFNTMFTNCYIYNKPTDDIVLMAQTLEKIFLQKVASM

[11] = target: T9, Brd2(1)*(Met165Ala) (Homo sapiens, UniProt P25440, M165A); experiment: ITC reverse titration of protein into compound; assay type: binding; design: Plasmids of the eight single BET bromodomain constructs Brd2(1), Brd2(2), Brd3(1), Brd3(2), Brd4(1), Brd4(2), Brdt(1) and Brdt(2); His6 (N); made in house; host or cells: E. coli BL21(DE3)
T9 sequence (P25440 74-180 M165A limits assumed): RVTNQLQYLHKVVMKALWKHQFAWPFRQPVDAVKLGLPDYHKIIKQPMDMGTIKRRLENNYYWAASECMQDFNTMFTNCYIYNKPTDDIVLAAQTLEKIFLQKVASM
Protocol: as §1
Reverse titrations were conducted to test the binding of the known ligands and the novel chemical probes to the wild types and the mutants. Experiments were carried out either at 25° C. or 30° C. For strong binders, a concentration of 150-200 μM of the protein was injected into a solution of 15-20 μM compound. […] In cases where the compound was solubilized in dimethyl sulfoxide, DMSO concentration was adjusted to 1% both in the syringe and in the cell.
as §2

[12] = test system: Brd2 wild types; experiment: DSF thermal shift, pooled statement; assay type: binding, human; settings: span over Brd2(1) and Brd2(2)
Protocol: (§4) DSF assays were performed on a LightCycler®480 from Roche or a Mx3005P Real Time PCR machine from Stratagene. Prior to DSF assays, frozen proteins were buffer exchanged using Vivaspin®6 concentrators with a 10 kDa cutoff on a Centrifuge 5430 from Eppendorf at a speed of 6000×g to remove glycerol and to buffer the proteins in 20 mM HEPES pH 7.5 at 25° C. and 100 mM NaCl. SYPRO®Orange from Invitrogen Molecular Probes® was used as a reporter dye to monitor the denaturing process of the proteins. Samples were assayed on a 96-well plate with final protein concentrations of 2 μM for the LightCycler®480 and 6 μM for Mx3005P. […] The temperature was raised with a step of 0.6° C. per minute from 37° C. to 95° C. with the LightCycler®480 collecting 39 measurements per ° C., and 1° C. per minute from 25° C. to 95° C. with Mx3005P, collecting fluorescence readings at the end of each interval. […]
(§5) Collected data was analysed by IGOR Pro 6, a scientific software tool from Wave Metrics, Inc. Analysis was done following the recommendations of Niesen et al.. Fluorescence intensity was plotted as a function of temperature, generating a sigmoidal curve described by a two-state transition from folded to unfolded protein. […]

[13] = test system: Brd2 methionine to alanine mutants; experiment: DSF thermal shift, pooled statement; assay type: binding, human; settings: span over both mutants
Protocol: as §4, §5

[14] = target: T9, Brd2(1)*(Met165Ala); experiment: DSF thermal shift; assay type: binding; design: Plasmids of the eight single BET bromodomain constructs Brd2(1), Brd2(2), Brd3(1), Brd3(2); His6 (N); made in house; host or cells: E. coli BL21(DE3); settings: mutant
How it was run: (§6)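 Proteins buffer-exchanged into 20 mM HEPES pH 7.5, 100 mM NaCl; SYPRO Orange reporter. Protein 2 or 6 µM with compound 10 or 30 µM (histone peptide 100 or 300 µM) on two instruments, ramped from 37 or 25 °C to 95 °C, triplicates. Tm from first-derivative maximum of sigmoidal fits.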

[15] = target: T6, Brd2(1); experiment: ITC reverse titration of protein into compound; assay type: binding; settings: ITC 25° C.; read-out: Kd wild type Brd2(1)
Protocol: as §1, §3, §2

[16] = target: T10, Brd2(2)*(Met438-Ala) (Homo sapiens, UniProt P25440, M438A); experiment: ITC reverse titration of protein into compound; assay type: binding
T10 construct: Plasmids of the eight single BET bromodomain constructs Brd2(1), Brd2(2), Brd3(1), Brd3(2); His6 (N); made in house; host or cells: E. coli BL21(DE3)
T10 sequence (P25440 344-453 M438A limits assumed): as the sequence (P25440 344-453 W370F limits assumed) above, with F27W, M95A counted along it
Protocol: as §1
Reverse titrations were conducted to test the binding of the known ligands and the novel chemical probes to the wild types and the mutants. […]. In cases where the compound was solubilized in dimethyl sulfoxide, DMSO concentration was adjusted to 1% both in the syringe and in the cell.
as §2

[17] = target: T11, Brd2(1)*(Met165-Leu) (Homo sapiens, UniProt P25440, M165L); experiment: DSF thermal shift; assay type: binding; settings: mutant
T11 construct: Plasmids of the eight single BET bromodomain constructs Brd2(1), Brd2(2), Brd3(1), Brd3(2); His6 (N); made in house; host or cells: E. coli BL21(DE3)
T11 sequence (P25440 74-180 M165L limits assumed): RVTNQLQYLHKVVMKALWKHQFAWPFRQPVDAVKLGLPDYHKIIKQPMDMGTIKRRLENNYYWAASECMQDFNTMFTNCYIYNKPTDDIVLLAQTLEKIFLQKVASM
How it was run: as §6

[18] = target: T10, Brd2(2)*(Met438-Ala); experiment: DSF thermal shift; assay type: binding; settings: mutant
How it was run: as §6

[19] = target: T12, Brd2(2)*(Met438-Leu) (Homo sapiens, UniProt P25440, M438L); experiment: DSF thermal shift; assay type: binding; settings: mutant
T12 construct: Plasmids of the eight single BET bromodomain constructs Brd2(1), Brd2(2), Brd3(1), Brd3(2); His6 (N); made in house; host or cells: E. coli BL21(DE3)
T12 sequence (P25440 344-453 M438L limits assumed): as the sequence (P25440 344-453 W370F limits assumed) above, with F27W, M95L counted along it
How it was run: as §6

[20] = Solubility observations; settings: observation in words

Which results are given for `COC(=O)CC1N=C(c2cccc3[nH]ccc23)c2cc(OC)ccc2-n2c(C)nnc21` (centres unmarked) [Compound 18]?
Kd [1]: ~300 nM; Kd ([2]; Kd Brd2(2)): ~90 nM; ΔTm Brd2(1)*(Tryp097-Phe) [3]: 1.9 ± 0.5 K; ΔTm Brd2(2) [4]: 7.7 ± 0.2 K; ΔTm Brd2(2)*(Tryp370-His) [5]: 2.7 ± 0.4 K; ΔTm Brd2(1)*(Tryp097-His) [6]: 0.6 ± 0.3 K; ΔTm Brd2(2)*(Tryp370-Phe) [7]: 5.1 ± 0.1 K; ΔTm Brd2(1) [8]: 6.8 ± 0.6 K

With `CCNC(=O)CC1N=C(c2ccc(Cl)cc2)c2cc(OC)cc(C)c2-n2c(C)nnc21` (centres unmarked) [Compound 19] as the compound, how does the “ΔTm Brd2(2)” value [4] read?
The value was 3.8 ± 0.1 K.

What about the “ΔTm Brd(2)*(Val376-Ala)” value [9] of the same compound?
The value was 1.3 ± 0.1 K.

And the “ΔTm Brd2(1)*(Val103-Ala)” value [10]?
Its value is 0.4 ± 0.3 K.

What about the “ΔTm Brd2(1)” value [8] of the same compound?
The value was 0.5 ± 0.2 K.

Which “Fold higher affinity for mutant than wild type” value ([11]; Brd2(1)* methionine to alanine mutant vs wild type Brd2(2), ITC Kd) does the source give for `COc1ccc(OC)c(S(=O)(=O)Nc2ccc3c(c2)CN(C)C(=O)N3)c1` [Compound 51, 2,5-dimethoxy-N-(3-methyl-2-oxo-1,2,3,4-tetrahydroquinazolin-6-yl)benzenesulfonamide] here?
Its value is “three-fold higher affinity; also recorded: twelve fold higher affinity”.

And the “Selectivity for mutant relative to wild type” value ([11]; Brd2(1)*(Met165Ala) vs Brd2(1), ITC Kd)?
The value was “six-fold selectivity”.

What about the Kd ([11]; ITC 25° C.) of the same compound?
Its Kd is roughly 500 nM.

What about the “ΔTm wild types of Brd2” value [12] of the same compound?
Its value is 1-2 °C.

What about the “ΔTm methionine to alanine mutants of Brd2” value [13] of the same compound?
Its value is 4.5-6.6 °C.

And the “ΔTm Brd2(1)*(Met165-Ala)” value [14]?
Its value is 4.6 ± 0.2 K.

What about the Kd ([2]; read-out: Kd Brd2(2)) of the same compound?
Its Kd is roughly 1600 nM.

And the Kd [15]?
Its Kd is roughly 3200 nM.

What about the “Selectivity for mutant relative to wild type” value ([16]; Brd2(2) methionine to alanine mutant vs Brd2(2), ITC Kd) of the same compound?
The value was “six fold selectivity”.

And the “Fold higher affinity for mutant than wild type” value ([16]; Brd2(2)* methionine to alanine mutant vs wild type Brd2(1), ITC Kd)?
Its value is “twelve fold higher affinity; also recorded: three-fold higher affinity”.

What about the Kd ([16]; ITC 25° C., read-out: Kd methionine to alanine mutation of Brd2(2)) of the same compound?
Its Kd is roughly 260 nM.

And the “ΔTm Brd2(1)*(Met165-Leu)” value [17]?
Its value is 2.9 ± 0.2 K.

What about the “ΔTm Brd2(2)*(Met165-Ala)” value [18] of the same compound?
The value was 6.6 ± 0.3 K.

What about the “ΔTm Brd2(2)*(Met165-Leu)” value [19] of the same compound?
Its value is 5.2 ± 0.3 K.

And the “ΔTm Brd2(2)” value [4]?
The value was 2.1 ± 0.3 K.

And the “ΔTm Brd2(1)” value [8]?
The value was 1.1 ± 0.2 K.

What about the Solubility [20] of the same compound?
The Solubility was “good solubility”.
